Experimental data reported in PMC5956019, “A rapid solution-based method for determining the affinity of heroin hapten-induced antibodies to heroin, its metabolites, and other opioids” (Analytical and Bioanalytical Chemistry, 2018).
Where two headings read alike, the source gives them in different places.

Experiments:
[1] = target: 6-AmHap-Abs; format: binding, mouse; details: for Ki: read-out: Heterologous MST Ki; for IC50: read-out: Heterologous MST IC50
Description: The final concentrations of 6-AmHap-Abs, MorHap-Cy5 in the capillaries were 10 nM and 0.25 nM, respectively. The same procedure was performed for the binding of the 6-AmHap-Abs to the other drugs but different concentrations of competitor working solutions were used.
For the heroin-binding assay in the presence of esterase inhibitors, a working solution containing 6-AmHap antibody (40 nM) and 80 μM iso-OMPA/80 μM BNPP was incubated for 2 h at RT. An equal volume of MorHap-Cy5 (1 nM) was then mixed with the 6-AmHap-Abs/iso-OMPA/BNPP mixture and the reaction mixture was further incubated for 20 min in the dark at RT. The rest of the procedure was performed as described above. The final concentrations of 6-AmHap-Abs, iso-OMPA/BNPP, and MorHap-Cy5 in the capillaries were 10 nM, 20 μM/20 μM, and 0.25 nM, respectively.
(§1) The MST measurements were done on a Monolith™ NT.115^Pico instrument from NanoTemper Technologies GmbH. The instrument was equipped with an IR laser (wavelength, 1475 ± 15 nm; power, 120 mW maximum) and a red fluorescence channel that can detect red dyes, such as Cy5 and Alexa Fluor 647. The samples were measured at an LED power of 20% and an MST power of 25% with a laser-on time of 30 s and a laser-off time of 5 s. MST measurements of 15–16 samples typically take ~ 20 min.
In the competition MST procedures, a constant concentration of MorHap-Cy5:antibody complex was titrated with an increasing concentration of drug competitor. […] The software plots Fnorm against 15–16 increasing drug competitor concentration points to yield the binding curve, and subsequently fits the curve to obtain the IC50. For presentation purposes, the fraction bound was manually calculated and plotted using the equation above where x is the Fnorm at a given competitor concentration. The binding affinities (Ki) from the heterologous MST assays were then derived using the Ki-Finder software from the Nanotemper website. In order to calculate the Ki, the following parameters must be entered into the Ki-Finder website: the binding affinity of the tracer against the antibody (Kd), the concentration of the antibody (I0), the concentration of the tracer (labeled T0), the highest concentration of the competitor (L0), and the IC50 of the competitor to the antibody. The website then plots both the binding curve and competition curve to produce the competitor Ki, also known as the Kd of the antibody to the drug competitor.

[2] = test system: 6-AmHap-Abs; details: ref Sulima et al [3]; read-out: Competition ELISA Homologous, IC50; cited from earlier work
[3] = test system: 6-AmHap-Abs; format: binding, mouse; details: read-out: Competition ELISA Heterologous, IC50
[4] = degradation of heroin in humans, Fig. 1a; cited from earlier work
[5] = target: 6-AmHap-Abs; format: binding, mouse; details: read-out: Kd of 6-AmHap-Abs derived from ED-UPLC/MS/MS; post-immune serum diluted 1:1600, 5 nM D3-tracer
Description: Post-immune sera (week 8) from the mouse study described by Sulima et al. [12] were used in this study. […] Briefly, post-immune serum was diluted in DPBS (1:1600). Dialysis buffer was prepared by diluting the corresponding pre-immune serum (week 0) in DPBS (1:1600). […] A 100-μL dilution of week 8 serum containing 5 nM D3-tracer was pipetted into the sample chamber, and a 300-μL aliquot of the competitive inhibitor solution was added to the buffer chamber. Both week 8 and week 0 were run against each other at the same sera dilutions. For negative controls, the same setup was employed except both sides of the dialysis chamber contained only week 0 serum. Equilibrium dialysis, preparation of samples for UPLC/MS/MS, and calculation of Kd were performed as described [13].
The antibody binding site concentration was derived from Müller’s equation [17] and was calculated using the following formula: Abt=bTt+b×Kd/1−b where [Abt] is the total concentration of the antibody binding sites, b is the fraction of bound D3-tracer in the absence of competitive inhibitor, [Tt] is the total molar concentration of the D3-tracer after equilibrium, and Kd is the apparent dissociation constant.

[6] = target: Anti-morphine antibody (ab1060); format: binding, mouse; details: 0.25 nM MorHap-Cy5, 10 nM ab1060, 4000 nM competitor
Description: as §1
In the competition MST procedures, a constant concentration of MorHap-Cy5:antibody complex was titrated with an increasing concentration of drug competitor. […] The software plots Fnorm against 15–16 increasing drug competitor concentration points to yield the binding curve, and subsequently fits the curve to obtain the IC50. For presentation purposes, the fraction bound was manually calculated and plotted using the equation above where x is the Fnorm at a given competitor concentration. The binding affinities (Ki) from the heterologous MST assays were then derived using the Ki-Finder software from the Nanotemper website. […]

[7] = 0.25 nM MorHap-Cy5, 10 nM antibody binding sites, without esterase inhibitors, […]
[8] = 0.25 nM MorHap-Cy5, 10 nM antibody binding sites, without esterase inhibitors

Compound	Ki [1, 7]	IC50 [1, 8]	IC50 [2]	IC50 [3]	other results
COC1=CC=C2[C@H]3Cc4ccc(OC)c5c4[C@@]2(CCN3C)[C@H]1O5 [Thebaine, thebaine]	13.1 ± 5.47 nM	35.6 ± 0.91 nM			
6-acetylmorphine [6-AM]	0.44 ± 0.33 nM	6.75 ± 1.17 nM	3720 ± 700 nM	19.8 ± 6.33 nM	t1/2 [4]: 0.367 to 0.433 h; Kd [5]: 0.53 ± 0.28 nM
CN1CCCCC1 [N-Methylpiperidine, N-methylpiperidine]					Heterologous MST IC50 [1, 8]: No binding; Heterologous MST Ki [1, 7]: No binding; Heterologous MST Ki ([1]; 0.25 nM MorHap-Cy5, 10 nM antibody binding sites, without esterase inhibitors, […], listed as N-methylpiperidine): Neither acetanilide nor N-methylpiperidine bound
CN1CC[C@]23c4c5ccc(O[C@@H]6O[C@H](C(=O)O)[C@@H](O)[C@H](O)[C@H]6O)c4O[C@H]2[C@@H](O)C=C[C@H]3[C@H]1C5 [M-3G, morphine-3-β-glucuronide]	27.9 ± 4.14 nM	69.1 ± 1.24 nM	28000 ± 11400 nM	23.2 ± 7.33 nM	t1/2 [4]: 4.5 h
CN1CC[C@]23c4c5ccc(O)c4O[C@H]2[C@H](NC(=O)CCSCC(N)=O)C=C[C@H]3[C@H]1C5 [MorHap-acetamide]					Ki [6]: 14 ± 7.97 nM
CN1CC[C@]23c4c5ccc(O)c4O[C@H]2C(=O)CC[C@@]3(O)[C@H]1C5 [Oxymorphone, oxymorphone]	251 ± 7 nM	598.1 ± 0.95 nM	125000 ± 28600 nM	2430 ± 864 nM	
C[N+]1([O-])CC[C@]23c4c5ccc(O)c4O[C@H]2[C@@H](O)C=C[C@H]3[C@H]1C5 (stereo partly drawn) [Morphine N-Oxide, morphine N-oxide]	6460 ± 4780 nM	12651 ± 1.33 nM			
C=CCN1CC[C@]23c4c5ccc(O)c4O[C@H]2[C@@H](O)C=C[C@H]3[C@H]1C5 [Nalorphine, nalorphine]	2.93 ± 0.98 nM	10.6 ± 0.89 nM			
Oc1ccc2c3c1O[C@H]1[C@@H](O)C=C[C@H]4[C@@H](C2)NCC[C@@]341 [Normorphine, normorphine]	55.1 ± 7.58 nM	136 ± 0.94 nM	112000 ± 22300 nM	3220 ± 2000 nM	
CN1CC[C@]23c4c5ccc(O)c4O[C@H]2[C@@H](O)C=C[C@H]3[C@H]1C5O (stereo partly drawn) [10-Hydroxymorphine, 10-hydroxymorphine]	18.4 ± 5.78 nM	51.2 ± 0.72 nM			
CN1CC[C@]23CCCC[C@H]2[C@H]1Cc1ccc(O)cc13 [Levorphanol, levorphanol]	11.6 ± 4.41 nM	33.7 ± 0.91 nM	3390 ± 900 nM	341 ± 138 nM	
CN1CC[C@]23c4c5ccc(O)c4O[C@H]2CCC[C@H]3[C@H]1C5 [Desomorphine, desomorphine]					IC50 [1]: 9.07 ± 0.73 nM; Ki [1]: 0.9 ± 0.64 nM
CN1CC[C@]23c4c5ccc(O)c4O[C@H]2[C@@H](O[C@@H]2O[C@H](C(=O)O)[C@@H](O)[C@H](O)[C@H]2O)C=C[C@H]3[C@H]1C5 [M-6G, morphine-6-β-glucuronide]	0.66 ± 0.9 nM	5.88 ± 1.22 nM	25000 ± 12100 nM	11.3 ± 2.16 nM	t1/2 [4]: 4.60 h
CC(=O)Nc1ccccc1 [Acetanilide, acetanilide]					Heterologous MST IC50 [1, 8]: No binding; Heterologous MST Ki [1, 7]: No binding; Heterologous MST Ki ([1]; 0.25 nM MorHap-Cy5, 10 nM antibody binding sites, without esterase inhibitors, […], listed as acetanilide): Neither acetanilide nor N-methylpiperidine bound
